From US10676720B2, “Combinational use of mechanical manipulation and programin derivatives to increase Oct4, Sox2, Nanog or c-Myc expression in fibroblasts” (The Chinese University of Hong Kong, priority 2014, dated 2020)
Values joined by “and” are separate entries in the source; they are usually repeats but may differ in a detail not shown here. Identical values can stand only once. Like-named read-outs stand apart in the source and are kept apart here.

Assays:
[1] = test system: Oct4, Sox2 and Nanog expression in embryoid-like cell bodies of CD34+ mouse fibroblasts; assay: qPCR of pluripotent gene expression in embryoid-like bodies of mouse tail fibroblasts; type: cell-based; details: for Oct4, Sox2 and Nanog expression (qPCR, FIG. 5): embryoid-like cell bodies of CD34+ mouse fibroblasts; for Oct4, Sox2 and Nanog expression (qPCR, FIG. 5) / Oct4, Sox2 and Nanog expression (qPCR, FIG. 4): vs untreated bodies and monolayer; for Oct4, Sox2 and Nanog expression (qPCR, FIG. 4): embryoid-like cell bodies treated with 5 μm
Protocol: Materials required: Culture medium, supplemented with 10% FBS, 1% PS in DMEM (Invitrogen); Mouse ESC medium, supplemented with 1×B27 (Invitrogen), 1,000 U/mL Mouse Leukemia Inhibitory Factor (LIF) in DMEM/F12 culture medium (Invitrogen); Programin (frozen stock dissolved in DMSO); Working concentration=1-5 μM; Sterile 35 mm non-adhesive culture dish (SPL; 11035).
1. Source mouse tail fibroblasts (passage 2-6 and in log phase of growth). Trypsinize the fibroblasts using standard protocols to obtain a suspension of the cells in culture medium.
2. Seed the fibroblasts or other somatic cells onto a sterile 35 mm non-adhesive culture dish at density of 1×10^5-1×10^6 cells/cm^2 in 3 mL of culture medium.
4. Gently pipette the culture media to prevent the cells from adhering to culture dish surface. Two sessions per day, 2 min for each session, must be performed. A standard 1 mL pipette and plastic tip was used for pipetting the cultures. The pipetting has to done very slowly (approximately 0.5-1 mL/second generates sufficient force to detach cells from non-adhesive culture dish surface).
1. The cells would start to aggregate into embryoid-like bodies after day 1. These bodies will grow in numbers and size during the period of culture.
2. Gently pipette the culture media to prevent the embryoid-like cell bodies from attaching on culture dish surface.
3. Add 1 mL of fresh culture medium.
1. Collect cell suspension and pellet cells by centrifugation at 800 rpm for 5 min. […] Wash cell once with mouse ESC medium and Programin (1-5 μM) or programin derivatives.
2. Pellet the embryoid-like bodies again and re-suspend them in 3 mL mouse ESC medium and Programin or derivatives thereof.
3. Seed the embryoid-like cell bodies onto a sterile 35 mm non-adhesive culture dish.
4. Perform daily pipetting twice in a day to prevent the embryoid-like cell bodies from sticking to the culture dish.
5. Add 1 mL of fresh mouse ESC medium on day 5 (day 2 post-Programin treatment).
2. Harvest the embryoid-like cell bodies for qPCR analysis to validate expression of pluripotent genes: Oct4, Sox2 and Nanog expression. In addition, expression of other key stem cell-associated genes.

[2] = test system: Oct4-EGFP expression in CD34+ fibroblasts from the tail of an Oct4-EGFP transgenic mouse; details: embryoid-like cell bodies, 5 μM, 24, 48 and 69 hours
Excerpt: 1. Harvest the embryoid-like cell bodies for PI and Hoechst staining for confocal analysis. The presence of green fluorescence and Hoechst staining in cells indicate the presence of live PIP cells expressing Oct4-EGFP.
CD34^+ fibroblasts harvested from the tail of an Oct4-EGFP transgenic mouse were mechanically pipetted and maintained on non-adhesive culture plates so that the cells became aggregated to form embryoid-like bodies (FIG. 3A). The embryoid-like bodies in this study were stained with PI dye to determine the presence of dead cells (red arrows) and Hoechst dye for the presence of live cells (blue arrows) (FIGS. 3A-3D).

[3] = test system: Programin-treated embryoid-like cell bodies
Protocol: Programin-treated embryoid-like cell bodies (1×10^6 cells/10 cm^2) were maintained as a suspension culture in DMEM/F12, 1000 U/mL LIF and 1×B27 on non-adhesive culture dishes for 4 days. The embryoid-like cell bodies were then transferred to culture dishes coated with 0.1% gelatin (FIG. 9A). 10 μM Wnt agonist (Cat #681665, Calbiochem) was added to the culture medium (DMEM/F12, 1000U/mL LIF and 1×B27).

[4] = test system: Programin treated embryoid-like cell bodies; details: treated embryoid-like bodies on 0.1% gelatin, B27 medium, after 3 days, more obvious after 7 days
Excerpt: Programin treated embryoid-like cell bodies (1×10^6 cells/10 cm^2) were maintained as a suspension culture in DMEM/F12, 1000U/mL LIF and 1×B27 on non-adhesive culture dishes for 4 days. The embryoid-like cell bodies were then transferred to culture dishes coated with 0.1% gelatin (FIG. 10A).

[5] = test system: CD34+ fibroblasts grown on adhesive culture dishes; details: 5 μM for 3 days
Excerpt: Tail fibroblasts extracted from the tail of Oct4-EGFP transgenic mice and stained with CD34 (FIG. 2). The cells were sorted by flow cytometry for only those expressing the surface marker CD34.

[6] = test system: Oct4, Sox2, KLF4, c-Myc and Nanog expression in HUCPV cells; details: HUCPV embryoid-like bodies
Protocol: Materials required: HUCPV medium, consisting of 15% ESQ-FBS (Invitrogen) and 1% PS in MEM/F12 (Invitrogen), Essential 6 (Invitrogen) supplemented with 100 ng/mL basic fibroblast growth factor (bFGF) (Invitrogen), Programin or derivatives thereof (frozen stock dissolved in DMSO); Working concentration=1-5 μM; Sterile non-adhesive 24-well culture plate (SPL; 32024).
Primary human umbilical cord peri-vascular (HUCPV) cells were maintained in HUCPV culture medium and passaged by trypsinization. Only HUCPV cells below cell passage 6 were used.
HUCPV cultures are trypsinize and dissociate into single cells.
The dissociated HUCPV cells are re-suspend as 3×10^5 cells in 600 μL of HUCPV medium and seeded into each well of a non-adhesive 24-well culture plate.
The cells are incubated at 37° C. and 5% CO2 inside a cell incubator.
On following day, until the end of experiment, the cells were pipetted twice a day to prevent cells attaching onto culture plates which caused the HUCPV cells to aggregate into embryoid-like cell bodies.
200 μL of fresh HUCPV medium were added to the cultures, every 2 days. […]
Thirty hours after Programin treatment, the Programin treated embryoid-like cell bodies were harvested for qPCR analysis to validate expression of the pluripotent genes: Oct4, Sox2 and Nanog. Other key stem cells-associate genes were also analyzed.

[7] = test system: Oct4, Sox2, KLF4, c-Myc and Nanog expression in HUCPV cells; details: HUCPV cells as a monolayer, 0-5 μM for 30 hours
[8] = test system: Oct4, Nanog, Sox2, c-Myc and KLF4 expression in human skin fibroblasts; details: 5 μM, 4 days
Protocol: Materials required: Fibroblast medium, supplemented with 15% FBS, 1% non-essential amino acids, 1% PS in Eagle's MEM medium (Invitrogen), human ESC medium, supplemented with 20% knockout serum replacement (Invitrogen), 2 mM L-glutamine, 0.1 mM non-essential amino acids, 0.1 mM mercaptoethanol, 10 ng/mL fibroblast growth factor-basic (bFGF), 1% PS in DMEM/F12 (Invitrogen), Programin or derivatives thereof (frozen stock dissolved in DMSO); Working concentration=5 μM, and sterile 35 mm non-adhesive culture dish (SPL; 11035).
Primary human skin fibroblasts were cultured in fibroblast medium and passaged by trypsinization. Passage 5 fibroblasts were used for experimentation.
After dissociating the cultures into single cells with trypsin, 2×10^6 cells were resuspended in 3 mL fibroblast medium in non-adhesive 35 mm dish and maintained in 37° C. incubator with 5% CO2.
Several hours later, aggregates were formed. Gently breakup excessively large aggregates by pipetting.
The next day, compact aggregates were formed. Again gentry breakup aggregates into smaller size (100-120 μm diameter) by pipetting.
Three days after cell aggregate/embryoid-like cell body formation, change the medium to human ESC medium supplemented with 5 μM Programin or derivatives thereof.
Replenish medium with fresh Programin or derivatives thereof 2 days after. […]

SMILES: Oc1ncnc2[nH]ncc12 [Derivative 237]
- Oct4, Sox2 and Nanog expression (qPCR, FIG. 5) [1]: significantly increased

SMILES: Nc1nc2nc[nH]c2c(=S)[nH]1 [Derivative 400]
- Oct4, Sox2 and Nanog expression (qPCR, FIG. 5) [1]: significantly increased

SMILES: S=c1[nH]cnc2nc[nH]c12 [Derivative 594]
- Oct4, Sox2 and Nanog expression (qPCR, FIG. 5) [1]: significantly increased

SMILES: Nc1ncnc2nc[nH]c12 [Derivative 668]
- Oct4, Sox2 and Nanog expression (qPCR, FIG. 5) [1]: significantly increased

SMILES: Clc1nc(N2CCN(c3ccccc3)CC2)c2[nH]cnc2n1 [Derivative 957]
- Oct4, Sox2 and Nanog expression (qPCR, FIG. 5) [1]: significantly increased

SMILES: Clc1nc(-n2cccn2)c2nc[nH]c2n1 [Derivative 958]
- Oct4, Sox2 and Nanog expression (qPCR, FIG. 5) [1]: significantly increased

SMILES: Cc1cc(C)n(-c2nc(Cl)nc3[nH]cnc23)n1 [Derivative 959]
- Oct4, Sox2 and Nanog expression (qPCR, FIG. 5) [1]: significantly increased

SMILES: c1nc2nc(Nc3ccc(N4CCOCC4)cc3)nc(NC3CCCCC3)c2[nH]1 [programin, 2-(4-Morpholinoanilino)-6-cyclohexylamino-purine]
- increase in Oct4, Sox2 and Nanog expression ([1]; aggregates/embryoid-like bodies of fibroblasts, compared to controls (unaggregated, untreated cells)): 25-200 fold and 20-200 fold
- increase in expression of E-cadherin ([1]; compared to that of the initial fibroblast): 5 fold
- increase in Oct4, Sox2 and Nanog expression ([1]; embryoid-like cell bodies exposed to 2-5 μM for 30 hours, compared to an untreated control fibroblast): 25-200 fold
- Oct4, Sox2 and Nanog expression (qPCR, FIG. 5) [1]: higher
- Oct4, Sox2 and Nanog expression (qPCR, FIG. 4) [1]: highest
- Oct4, Sox2 and Nanog expression (qPCR, FIG. 4) ([1]; listed as Programin): significantly enhanced
- reprogramming efficiency ([1]; mouse somatic cells, takes 7 days to accomplish): approximately 20%
- Oct4-EGFP expression (confocal microscope) [2]: detectable
- Oct4-EGFP expression (confocal microscope) ([2]; listed as Programin): expressed Oct4-EGFP
- fate of treated cells that were not aggregated ([3]; following exposure to the Wnt agonist): underwent cell death
- formation of bone-like nodules ([3]; treated embryoid-like bodies on 0.1% gelatin with 10 μM Wnt agonist, after 2-3 days): Bone-like nodules were evident
- Alizen Red s staining of the nodules ([3]; treated embryoid-like bodies with 10 μM Wnt agonist): osteocytes
- formation of neurons [4]: Neurons were evident
- Oct4 expression [5]: did not express Oct4
- cell survival [5]: died
- Oct4, Sox2, KLF4, c-Myc and Nanog expression (qPCR) ([6]; 1-5 μM for 30 hours, vs untreated embryoid-like body controls (0 μM)): significantly enhanced
- concentration that induced the highest level of Oct4, Sox2, Klf4 and Nanog ([6]; 30 hours, 1-5 μM tested): 4 µM
- Oct4, Sox2, KLF4, c-Myc and Nanog expression (qPCR) [7]: did not activate
- expression of Oct4, Nanog, Sox2, c-Myc and KLF4 (qPCR) ([8]; human skin fibroblast embryoid-like bodies, vs vehicle and monolayer): higher levels
- expression of pluripotency-associated genes Oct4, Sox2, Nanog, KLF4 and c-Myc ([8]; human skin fibroblasts in a monolayer): not in a monolayer
